Measured values reported in PubChem BioAssay (NCI).
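Where inhibition never reached the appropriate level, the endpoint shown equals the highest concentration tested. Otherwise, values were interpolated linearly from a five-concentration, 48-hour dose response in 96-well plates. Here, GI50 denotes the concentration required for 50% inhibition of growth. TGI marks complete inhibition of growth.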

What was measured:
Test in all cases: NCI-60 cell line screen, 48 h
SNB-75 CNS = tested on: SNB-75 CNS
U251 CNS = tested on: U251 CNS
SR leukemia = tested on: SR leukemia
HS 578T breast = tested on: HS 578T breast
786-0 renal = tested on: 786-0 renal
OVCAR-5 ovarian = tested on: OVCAR-5 ovarian
HOP-62 NSCLC = tested on: HOP-62 NSCLC
A498 renal = tested on: A498 renal
MDA-MB-231 breast = tested on: MDA-MB-231 breast
RXF 393 renal = tested on: RXF 393 renal
SF-268 CNS = tested on: SF-268 CNS
OVCAR-4 ovarian = tested on: OVCAR-4 ovarian
IGROV1 ovarian = tested on: IGROV1 ovarian
SF-295 CNS = tested on: SF-295 CNS
OVCAR-3 ovarian = tested on: OVCAR-3 ovarian
COLO 205 colon = tested on: COLO 205 colon
DU-145 prostate = tested on: DU-145 prostate
SK-MEL-28 melanoma = tested on: SK-MEL-28 melanoma
NCI/ADR-RES ovarian = tested on: NCI/ADR-RES ovarian
ACHN renal = tested on: ACHN renal
SK-OV-3 ovarian = tested on: SK-OV-3 ovarian
A549 NSCLC = tested on: A549 NSCLC
LOX IMVI melanoma = tested on: LOX IMVI melanoma
SF-539 CNS = tested on: SF-539 CNS
SN12C renal = tested on: SN12C renal
MDA-MB-435 = tested on: MDA-MB-435
HL-60(TB) leukemia = tested on: HL-60(TB) leukemia
NCI-H226 lung = tested on: NCI-H226 lung
UACC-257 melanoma = tested on: UACC-257 melanoma
K-562 leukemia = tested on: K-562 leukemia
UACC-62 melanoma = tested on: UACC-62 melanoma
HT29 colon = tested on: HT29 colon
MOLT-4 leukemia = tested on: MOLT-4 leukemia
CAKI-1 renal = tested on: CAKI-1 renal
HCT-15 colon = tested on: HCT-15 colon
HOP-92 NSCLC = tested on: HOP-92 NSCLC
NCI-H23 lung = tested on: NCI-H23 lung
TK-10 renal = tested on: TK-10 renal
MCF7 breast = tested on: MCF7 breast
OVCAR-8 ovarian = tested on: OVCAR-8 ovarian
T-47D breast = tested on: T-47D breast
BT-549 breast = tested on: BT-549 breast
NCI-H460 lung = tested on: NCI-H460 lung
M14 melanoma = tested on: M14 melanoma
NCI-H522 lung = tested on: NCI-H522 lung
HCT-116 colon = tested on: HCT-116 colon
PC-3 prostate = tested on: PC-3 prostate
KM12 colon = tested on: KM12 colon
SW-620 colon = tested on: SW-620 colon
RPMI-8226 leukemia = tested on: RPMI-8226 leukemia
SK-MEL-2 melanoma = tested on: SK-MEL-2 melanoma
EKVX NSCLC = tested on: EKVX NSCLC
CCRF-CEM leukemia = tested on: CCRF-CEM leukemia
UO-31 renal = tested on: UO-31 renal
SK-MEL-5 melanoma = tested on: SK-MEL-5 melanoma
HCC-2998 colon = tested on: HCC-2998 colon
SNB-19 CNS = tested on: SNB-19 CNS

## CCn1cc(CNc2ccc(C(=O)Nc3cc4cc(OC)c(OC)cc4c(C)n3)cc2)c(C)n1
SNB-75 CNS
  GI50: 4.72 µM
  TGI: > 100 µM
U251 CNS
  GI50: 3.64 µM
  TGI: > 100 µM
SR leukemia
  GI50: 2.71 µM
  TGI: > 100 µM
HS 578T breast
  GI50: 5.32 µM
  TGI: > 100 µM
786-0 renal
  GI50: 28.6 µM
  TGI: > 100 µM
OVCAR-5 ovarian
  GI50: > 100 µM
  TGI: > 100 µM
HOP-62 NSCLC
  GI50: 2.71 µM
  TGI: 7.18 µM
A498 renal
  GI50: 4.29 µM
  TGI: > 100 µM
MDA-MB-231 breast
  GI50: > 100 µM
  TGI: > 100 µM
RXF 393 renal
  GI50: > 100 µM
  TGI: > 100 µM
SF-268 CNS
  GI50: 33.6 µM
  TGI: > 100 µM
OVCAR-4 ovarian
  GI50: 3.07 µM
  TGI: > 100 µM
IGROV1 ovarian
  GI50: > 100 µM
  TGI: > 100 µM

## Cc1cc(CCC(=O)NCCNc2c3ccccc3nc3ccccc23)cc(C)c1O[Si](C)(C)C(C)(C)C
SF-295 CNS
  TGI: 2.27 µM
OVCAR-3 ovarian
  TGI: 3.57 µM
COLO 205 colon
  TGI: 2.23 µM
DU-145 prostate
  TGI: 2.63 µM
SK-MEL-28 melanoma
  TGI: 3.37 µM
NCI/ADR-RES ovarian
  TGI: 4.44 µM
ACHN renal
  TGI: 3.05 µM
SK-OV-3 ovarian
  TGI: 3.01 µM
A498 renal
  TGI: 2.02 µM
A549 NSCLC
  TGI: 1.99 µM
MDA-MB-231 breast
  TGI: 25.8 µM
LOX IMVI melanoma
  TGI: 0.29 µM
SF-539 CNS
  TGI: 0.377 µM
SN12C renal
  TGI: 28.8 µM
MDA-MB-435
  TGI: 1.04 µM
HL-60(TB) leukemia
  TGI: 3.16 µM
NCI-H226 lung
  TGI: 33.4 µM
OVCAR-4 ovarian
  TGI: 2.67 µM
UACC-257 melanoma
  TGI: 3.51 µM
K-562 leukemia
  TGI: 0.826 µM
UACC-62 melanoma
  TGI: 27.6 µM
HT29 colon
  TGI: 1.71 µM

## C[N+](C)(C)CC(=O)N/N=C(\Cc1nc2ccc([N+](=O)[O-])cc2[nH]c1=O)C(=O)Nc1nc2ccc([N+](=O)[O-])cc2s1
SF-295 CNS
  TGI: > 100 µM
MOLT-4 leukemia
  TGI: > 100 µM
CAKI-1 renal
  TGI: 92 µM
SNB-75 CNS
  TGI: > 100 µM
HCT-15 colon
  TGI: > 100 µM
OVCAR-3 ovarian
  TGI: > 100 µM
COLO 205 colon
  TGI: > 100 µM
HOP-92 NSCLC
  TGI: > 100 µM
NCI-H23 lung
  TGI: > 100 µM
TK-10 renal
  TGI: > 100 µM
U251 CNS
  TGI: > 100 µM
SR leukemia
  TGI: > 100 µM
DU-145 prostate
  TGI: > 100 µM
MCF7 breast
  TGI: > 100 µM
OVCAR-8 ovarian
  TGI: > 100 µM
T-47D breast
  TGI: > 100 µM
SK-MEL-28 melanoma
  TGI: > 100 µM
BT-549 breast
  TGI: 94.3 µM
786-0 renal
  TGI: > 100 µM
NCI/ADR-RES ovarian
  TGI: > 100 µM
ACHN renal
  TGI: > 100 µM
NCI-H460 lung
  TGI: > 100 µM
SK-OV-3 ovarian
  TGI: > 100 µM
M14 melanoma
  TGI: > 100 µM
OVCAR-5 ovarian
  TGI: > 100 µM
HOP-62 NSCLC
  TGI: > 100 µM
A498 renal
  TGI: > 100 µM
NCI-H522 lung
  TGI: 79.8 µM
A549 NSCLC
  TGI: > 100 µM
MDA-MB-231 breast
  TGI: > 100 µM
HCT-116 colon
  TGI: > 100 µM
LOX IMVI melanoma
  TGI: > 100 µM
RXF 393 renal
  TGI: > 100 µM
PC-3 prostate
  TGI: > 100 µM
KM12 colon
  TGI: > 100 µM
SW-620 colon
  TGI: > 100 µM
SF-539 CNS
  TGI: > 100 µM
SN12C renal
  TGI: > 100 µM
MDA-MB-435
  TGI: > 100 µM
RPMI-8226 leukemia
  TGI: > 100 µM
SK-MEL-2 melanoma
  TGI: > 100 µM
EKVX NSCLC
  TGI: > 100 µM
CCRF-CEM leukemia
  TGI: > 100 µM
HL-60(TB) leukemia
  TGI: > 100 µM
NCI-H226 lung
  TGI: > 100 µM
SF-268 CNS
  TGI: > 100 µM
UO-31 renal
  TGI: > 100 µM
OVCAR-4 ovarian
  TGI: > 100 µM
UACC-257 melanoma
  TGI: > 100 µM
K-562 leukemia
  TGI: > 100 µM
UACC-62 melanoma
  TGI: > 100 µM
HT29 colon
  TGI: > 100 µM
SK-MEL-5 melanoma
  TGI: > 100 µM
IGROV1 ovarian
  TGI: > 100 µM
HCC-2998 colon
  TGI: > 100 µM

## COC(=O)C1(C(=O)OC)N=C(C)OC1c1ccccc1O (centres undefined)
SF-295 CNS
  TGI: > 100 µM
MOLT-4 leukemia
  TGI: > 100 µM
CAKI-1 renal
  TGI: > 100 µM
SNB-75 CNS
  TGI: > 100 µM
HCT-15 colon
  TGI: > 100 µM
OVCAR-3 ovarian
  TGI: > 100 µM
COLO 205 colon
  TGI: > 100 µM
HOP-92 NSCLC
  TGI: > 100 µM
NCI-H23 lung
  TGI: > 100 µM
SNB-19 CNS
  TGI: > 100 µM
TK-10 renal
  TGI: > 100 µM
U251 CNS
  TGI: > 100 µM
SR leukemia
  TGI: > 100 µM
DU-145 prostate
  TGI: > 100 µM
MCF7 breast
  TGI: > 100 µM
OVCAR-8 ovarian
  TGI: > 100 µM
T-47D breast
  TGI: > 100 µM
SK-MEL-28 melanoma
  TGI: > 100 µM
BT-549 breast
  TGI: > 100 µM
786-0 renal
  TGI: > 100 µM
NCI/ADR-RES ovarian
  TGI: > 100 µM
ACHN renal
  TGI: > 100 µM
NCI-H460 lung
  TGI: > 100 µM
SK-OV-3 ovarian
  TGI: > 100 µM
M14 melanoma
  TGI: > 100 µM
OVCAR-5 ovarian
  TGI: > 100 µM
HOP-62 NSCLC
  TGI: > 100 µM
A498 renal
  TGI: > 100 µM
A549 NSCLC
  TGI: > 100 µM
HCT-116 colon
  TGI: > 100 µM
LOX IMVI melanoma
  TGI: > 100 µM
RXF 393 renal
  TGI: > 100 µM
PC-3 prostate
  TGI: > 100 µM
KM12 colon
  TGI: > 100 µM
SW-620 colon
  TGI: > 100 µM
SN12C renal
  TGI: > 100 µM
MDA-MB-435
  TGI: > 100 µM
RPMI-8226 leukemia
  TGI: > 100 µM
SK-MEL-2 melanoma
  TGI: > 100 µM
EKVX NSCLC
  TGI: > 100 µM
CCRF-CEM leukemia
  TGI: > 100 µM
HL-60(TB) leukemia
  TGI: > 100 µM
NCI-H226 lung
  TGI: > 100 µM
UO-31 renal
  TGI: > 100 µM
OVCAR-4 ovarian
  TGI: > 100 µM
UACC-257 melanoma
  TGI: > 100 µM
K-562 leukemia
  TGI: > 100 µM
UACC-62 melanoma
  TGI: > 100 µM
SK-MEL-5 melanoma
  TGI: > 100 µM
IGROV1 ovarian
  TGI: > 100 µM
HCC-2998 colon
  TGI: > 100 µM
